Test results: patent US20250223297A1, “NOVEL RAPAMYCIN DERIVATIVES” (Novartis AG, priority 2017, published 2025)

Key:
[1] = system: S6K1 (Thr389) phosphorylation (mTORC1 activity) in FKBP12 knock-out 293T cells; experiment: S6K1 (Thr389) phosphorylation ELISA in FKBP12 knock-out 293T cells; format: cell-based; conditions: 2 h, relative to DMSO
[2] = system: mTORC1 signaling (pS6 Ser240/244) in MEF TSC1−/− cells; experiment: MEF TSC1-/- cell based assay for rapalog potency (pS6); design: species or system mouse; conditions: Mus musculus, 2 h, 2 h treatment, average from multiple assays
Excerpt: Potency of mTOR inhibitors may also be determined using a MEF TSC1−/− cell-based assay. MEF TSC1−/− cells are Mouse Embryonic Fibroblasts deficient in the Tuberous sclerosis protein, TSC1, which negatively regulates mTORC1 signaling. Thus, the deficiency of TSC1 induces constitutive mTORC1 activation, resulting in phosphorylation (activation) of the downstream proteins in the mTORC1 signaling pathways. This cell-based assay is used to measure inhibition (de-phosphorylation) of the mTORC1 signaling components S6 and 4EBP1, by rapalogs or other mTOR inhibitors.
The assay is typically carried out as follows: MEF TSC1−/− cells are plated on Poly-D-lysine coated 384 well Griener clear bottom plates and incubated overnight at 37° C., 5% CO2. […] Cells are fixed with 4% paraformaldehyde for 30 min and washed 5 times with TBS-EDTA followed by immuno-staining with florescent tag labeled antibodies for pS6 and p4EBP1. Nuclei are visualized with Hoechst staining. Cells are imaged using respective florescence channels and the potency of mTOR inhibitors is defined by pS6 IC50 (nM).
Cell-based assay for rapalog potency determination. Rapalog potency was determined using MEF TSC1−/− cell based assay. MEF TSC1−/− cells are Mouse Embryonic Fibroblasts deficient in Tuberous sclerosis protein-TSC1, which negatively regulates mTORC1 signaling and thus display constitutive mTORC1 activation, resulting in phosphorylation (activation) of downstream molecules. This cell-based assay is used to measure inhibition (de-phosphorylation) of S6 and 4EBP1 by rapalogs or other mTOR inhibitors.
MEF TSC1−/− cells were plated on Poly-D-lysine coated 384 well Griener clear bottom plates and incubated overnight at 37° C., 5% CO2. […] Nuclei were visualized with Hoechst (ThermoFisher Scientific #H3570) staining. Cells were imaged (InCell 600) using respective fluorescence channels and the potency of mTOR inhibitors was defined by pS6 IC50 (nM).
In vitro potency of mTOR inhibitors was defined by pS6 IC50 (nM) in MEF TSC1−/− cells.
IC50 values are calculated as the average from multiple assays.

[3] = Comparative blood and brain concentrations in rats after single p.o. dose; format: in vivo; conditions: rat, single p.o. dose 3, 10, 30 mg/kg; 3 h and 24 h
Method: Concentrations were determined using HPLC/Mass spectrometry. […] Blood and brain tissues were collected at 3 hours (h) and 24 h following treatment to determine concentrations of the compounds.

FKBP12 = FKBP12 (Homo sapiens (Human), UniProt P62942); experiment: SPR assay, binding affinity to FKBP12; conditions: single-cycle kinetics
Chain of FKBP12 (P62942 whole entry, the tested form may be a part): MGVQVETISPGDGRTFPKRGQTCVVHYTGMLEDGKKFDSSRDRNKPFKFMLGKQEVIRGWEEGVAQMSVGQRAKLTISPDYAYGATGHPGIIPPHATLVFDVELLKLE
Method: (§1) SPR Assay to Determine Binding Affinity to FK506-Binding Proteins (FKBP). N-terminal avi-his6 tagged FKBP fusions to FKBP12, FKBP51 and FKBP52 were expressed in E. coli and purified using standard chromatography. Each protein was subsequently immobilized on a streptavidin chip in a Biacore 8K SPR instrument (GE Healthcare). Using single-cycle kinetics, compound titrations were flowed at 45 uL/min over each surface using 2-minute association and 30-minute dissociation phases in a buffer containing 50 mM Tris pH 7.5/150 mM NaCl/0.01% Tween 20/1 mM DTT/2% DMSO. The data was fit using low molecular weight (LMW) single-cycle kinetics. The equilibrium dissociation constants (KD) are reported. […]

[4] = system: S6K1 (Thr389) phosphorylation (mTORC1 activity) in WT 293T cells; experiment: S6K1 (Thr389) phosphorylation ELISA in wild-type 293T cells; format: cell-based; conditions: 2 h, relative to DMSO
Method: WT, FKBP12 knock-down and FKBP12 knock-out 293T cells were plated at a density of 30,000 cells per well in poly-D-Lysine coated 96-well plates (Corning, #354461) in Dulbecco's modified Eagle's medium (ThermoFisher, #11995-065) supplemented with 10% fetal bovine serum (ThermoFisher, #16140-071). Cells were incubated at 37° C., 5% CO2 for 48 hours until they reached ˜80% confluence. […] Media supplemented with blank Dimethyl sulfoxide (DMSO) was used as a control for both compounds. Phosphorylated amounts of S6K1 (Thr389) were detected by a sandwich ELISA kit (Cell signaling, #7063C) following the manufacture's protocol.
S6K1 is a downstream target of mTORC1 and phosphorylation of its rapalog-sensitive Thr389 site is used as a functional readout of mTORC1 activity. Lee, C. H., Inoki, K. and Guan, K. L. (2007). mTOR pathway as a target in […]. Annu. Rev. Pharmacol. Toxicol. 47. 443-467. […] In FKBP12 knock-out cells. […] Such specificity of Example 2 to FKBP12 may facilitate targeting cells and tissues with relatively high levels of FKBP12 expression, while avoiding (or minimizing) side effects in the tissues where FKBP12 is weakly expressed.

FKBP52 = FKBP52 (Homo sapiens (Human), UniProt Q02790); experiment: SPR assay, binding affinity to FKBP52; conditions: single-cycle kinetics
Chain of FKBP52 (Q02790 whole entry): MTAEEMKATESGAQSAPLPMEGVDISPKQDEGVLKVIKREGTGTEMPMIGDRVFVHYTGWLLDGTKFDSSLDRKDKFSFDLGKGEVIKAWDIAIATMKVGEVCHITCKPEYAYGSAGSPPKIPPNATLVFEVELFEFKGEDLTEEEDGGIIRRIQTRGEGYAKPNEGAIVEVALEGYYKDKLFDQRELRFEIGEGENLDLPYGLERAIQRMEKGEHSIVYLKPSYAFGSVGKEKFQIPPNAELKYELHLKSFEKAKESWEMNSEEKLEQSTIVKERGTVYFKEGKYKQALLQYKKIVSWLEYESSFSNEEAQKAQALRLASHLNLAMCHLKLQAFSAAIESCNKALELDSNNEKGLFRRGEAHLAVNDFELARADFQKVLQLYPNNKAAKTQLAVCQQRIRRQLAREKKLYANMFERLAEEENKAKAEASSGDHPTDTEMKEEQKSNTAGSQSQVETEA
Method: as §1

[5] = system: S6K1 (Thr389) phosphorylation (mTORC1 activity) in FKBP12 knock-down 293T cells; experiment: S6K1 (Thr389) phosphorylation ELISA in FKBP12 knock-down 293T cells; format: cell-based; conditions: 2 h, relative to DMSO
[6] = system: mTORC1 pathway (S6 phosphorylation) in rat liver; experiment: Inhibition of mTORC1 pathway in rat liver (p-S6/t-S6 immunoblot); format: in vivo
Method: Protein extraction and immunoblotting. For protein extraction, snap frozen tissues were lysed in MSD Lysis Buffer (MSD, Rockville, Maryland), supplemented with complete EDTA free protease inhibitor and PhosSTOP phosphatase inhibitor tablets (Roche, Manheim, Germany), and centrifuged at 13,000g for 20 min at 4° C. The resultant supernatant was used for immunoblotting. Protein was quantified with BCA protein assay (Thermo Scientific, MA). Samples were resolved on 4-20% Criterion™ TGX™ Precast Midi Protein gels (Bio-Rad, CA) and transferred onto nitrocellulose membranes (Bio-Rad, CA) using a Trans Turbo Blot system (Bio-Rad, CA). Immunoblotting was performed with antibodies to p-S6 and t-S6 from Cell Signaling Technologies (all 1:1000 in TBS-T with 5% BSA). The ‘p’ and ‘t’ prefixes signify ‘phosphorylated’ and ‘total’ forms respectively. HRP-conjugated secondary antibodies against rabbit (#7074) were from Cell Signaling Technologies, MA. […] Resultant digital images were converted into a TIFF format and quantified using ImageJ software.
The ability of Example 2 to inhibit mTORC1 pathway in vivo was determined in rats aged 4 months (FIG. 5A-5D).

IC50 [2]: 0.274 nM
blood concentrations compared with RAD001 [3]: higher
brain concentrations compared with RAD001 [3]: higher
Kd (FKBP12): 16 nM
Kd (FKBP52): > 10000 nM
SMILES: CO[C@@H]1C[C@H](C[C@@H](C)[C@@H]2CC[C@H](C)/C=C(\C)[C@@H](O)[C@@H](OC)C(=O)[C@H](C)C[C@H](C)/C=C/C=C/C=C(\C)[C@H](N3CCCS3(=O)=O)C[C@@H]3CC[C@@H](C)[C@@](O)(O3)C(=O)C(=O)N3CCCC[C@H]3C(=O)O2)CC[C@H]1O [Example 2, (R)-C16-(1,1-dioxidoisothiazolidin-2-yl)-C32-deoxo-rapamycin]
inhibition of S6K1 (Thr389) phosphorylation [1]: failed to inhibit
inhibition of S6K1 (Thr389) [4]: ~80%
maximum inhibition of S6K1 (Thr389) [5]: ~40%
S6 inactivation in rat liver, 24 h ([6]; 24 h following dosing with 10 (trend p=0.06) and 30 mg/kg): remained inactivated
de-phosphorylation (inactivation) of S6 in rat liver, 3 h ([6]; single p.o. dose 3, 10 and 30 mg/kg, three hours following dosing, vs vehicle): significant de-phosphorylation
